Laboratory results reported in US20070219214A1, “Dual NK2/NK3-antagonists, pharmaceutical compositions comprising them, and processes for their preparation” (Solvay pharmaceuticals GmbH, priority 2006, published 2007).

Legend:
human NK1-receptor = human NK1-receptor (Homo sapiens, UniProt P25103); test: Binding potency of the test substances to NK1-receptors in vitro ([3H]-Substance P displacement); conditions: human NK1-receptor in CHO cell membranes, average of at least three measurements, read-out: pKi, binding potency to NK1-receptors (converted)
NK1-receptor = target: T1, NK1-receptor (Cavia porcellus, UniProt P30547); test: Functional NK1-receptor antagonism in aortic ring preparations isolated from guinea pigs; conditions: Substance P-induced relaxation
T1 construct: from tissue; host or cells: whole animal (Pirbright-White guinea pigs), in vivo
Experimental: 5. Determination of Functional NK1-Receptor Antagonism of Test Compounds in Tissue Isolated from Guinea Pigs.
The NK1-antagonistic action of test compounds was tested in aortic ring preparations isolated from guinea pigs. The preparations were kept in an oxygenated nutrient solution kept at 37° C. For measuring contraction of the circular vascular muscle, the preparations were fixed to a hook and connected to force displacement transducers. Contractions/relaxations were recorded on a pen recorder. The preparations were given a medium tonus by addition of phenylephrine.
Before (predrug) and after the administration of the test compound such relaxations were measured and quantified in percent of the predrug relaxation. 2-3 concentrations of the test compound were applied showing the inhibition of the receptor stimulation concentration dependently. The concentration of half-maximal inhibition (IC50) and its negative logarithm pIC50=−log(IC50) was calculated. The pIC50 value indicates the inhibitory potency of the test compounds to the NK1-receptor.

Chain of human NK1-receptor (P25103 whole entry): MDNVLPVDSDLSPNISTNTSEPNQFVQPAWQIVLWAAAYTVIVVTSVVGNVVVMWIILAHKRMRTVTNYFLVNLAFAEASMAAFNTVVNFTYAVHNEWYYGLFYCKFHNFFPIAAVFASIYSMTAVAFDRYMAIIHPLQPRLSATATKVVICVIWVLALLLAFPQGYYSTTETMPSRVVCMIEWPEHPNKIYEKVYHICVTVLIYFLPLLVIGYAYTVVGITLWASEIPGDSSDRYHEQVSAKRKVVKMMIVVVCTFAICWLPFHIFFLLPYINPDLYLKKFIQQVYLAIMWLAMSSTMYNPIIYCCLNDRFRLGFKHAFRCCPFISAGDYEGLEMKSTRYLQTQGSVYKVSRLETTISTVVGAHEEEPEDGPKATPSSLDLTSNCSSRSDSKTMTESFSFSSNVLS
T1 sequence (P30547 whole entry): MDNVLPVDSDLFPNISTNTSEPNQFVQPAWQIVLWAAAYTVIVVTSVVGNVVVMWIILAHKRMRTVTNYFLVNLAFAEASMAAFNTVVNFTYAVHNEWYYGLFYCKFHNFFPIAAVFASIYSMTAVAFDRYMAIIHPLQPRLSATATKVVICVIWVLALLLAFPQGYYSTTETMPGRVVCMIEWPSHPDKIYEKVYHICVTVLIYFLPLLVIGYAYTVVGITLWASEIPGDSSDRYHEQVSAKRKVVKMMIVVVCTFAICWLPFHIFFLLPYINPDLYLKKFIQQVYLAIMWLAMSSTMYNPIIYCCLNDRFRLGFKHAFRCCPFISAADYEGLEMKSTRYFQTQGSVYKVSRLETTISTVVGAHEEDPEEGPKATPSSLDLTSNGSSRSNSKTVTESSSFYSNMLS

Row | SMILES | Ki (human NK1-receptor) [nM] | pIC50, functional NK1-antagonism on isolated guinea pig tissue (NK1-receptor)
1 | CN(C)C(=O)C1(N2CCCCC2)CCN(CC[C@H](CN(C)C(=O)c2ccccc2)c2ccc(Cl)c(Cl)c2)CC1 [compound 1] | 79.4 | 
2 | CN(C)C(=O)C1(N2CCCCC2)CCN(CC[C@H](CN(C)C(=O)c2cc(C#N)c3ccccc3c2)c2ccc(Cl)c(Cl)c2)CC1 [compound 11] |  | 8.26
